Measured values reported in US9309179B2 (FAB PHARMA S.A.S., priority 2006, dated 2016).
≈ marks a conversion by molar mass, not a printed value. Counter-ions that a name gives are not always drawn. Like-named read-outs stand apart in the source and are kept apart here.

Assays:
[1] = tested on: E. coli CIP 76.24; assay: MIC, broth microdilution; format: cell-based; settings: Escherichia coli, read-out: MIC E. coli CIP 76.24
Procedure: (§1) The compounds of the present invention are useful antibacterial agents having a selective spectrum of activity in vitro against standard bacterial strains which are used to screen for activity against pathogenic bacteria. […] The activity is presented as Minimum Inhibitory Concentration (MIC) expressed in μg/ml.
(§2) Whole-cell antimicrobial activity was determined by broth microdilution method in microtiterplates. The compound was tested in serial 4-fold dilutions ranging from 0.06 to 64 mcg/mL. Test organisms were selected from the following laboratory strains: Staphylococcus aureus CIP 76.25, Staphylococcus aureus BAA39 MDR, Staphylococcus aureus NEM 14157 PeniR, Staphylococcus aureus CIP 54.146, Escherichia coli CIP 76.24. Bacteria were tested in Tryptic Soy (TS) or Mueller Hinton (MH) broth using an inoculum of 10^4 to 10^6 UFC/mL incubated at 37° C. for 20 h.
(§3) The minimum inhibitory concentration (MIC) was determined as the lowest concentration of compound at which no visible bacteria growth is observed (90% inhibition of absorbance of at […].)

[2] = tested on: S. aureus BAA39MDR; assay: MIC, broth microdilution; format: cell-based; settings: Staphylococcus aureus, 20 h, read-out: MIC S. aureus BAA39MDR
Procedure: as §1, §2, §3

[3] = tested on: S. aureus CIP 76.25; assay: MIC, broth microdilution; format: cell-based; settings: Staphylococcus aureus, read-out: MIC S. aureus CIP 76.25
Procedure: as §1, §2, §3

[4] = tested on: S. aureus NEM14157; assay: MIC, broth microdilution; format: cell-based; settings: Staphylococcus aureus, read-out: MIC S. aureus NEM14157
Procedure: as §1, §2, §3

[5] = molecular target: T1, recombinant E. coli FabI enzyme (Escherichia coli, UniProt P0AEK4); assay: FabI inhibition, fluorescence-based NADH assay; format: biochemical
T1 construct: 6-His (C); made in house; host or cells: prokaryotic expression vector
Procedure: Compound inhibitory activity of FabI enzyme is measured in vitro by the IC50 determination using a fluorescent based assay.
The protein FabI from E. coli is prepared and purified using standard methods for recombinant protein expression after cloning of the gene in a prokaryotic expression vector.
The biochemical activity of the FabI enzyme is assessed using the following method.
The assay buffer “AB” contains 50 mM Hepes pH7.5, 100 μM Dithiothreitol, 0.006% Triton-X100. The following components are added in a black polystyrene Costar plate up to a final volume of 55 μL: 1.5 μL DMSO, or inhibitor dissolved in DMSO and 53.5 μL of a FabI/NADH/NAD+ mixture in AB. After 60 min of pre-incubation at room temperature, the reaction is started by addition of 5 μL of Crotonoyl-CoA to a final volume of 60 μL. This reaction mixture is then composed of 40 nM FabI (produced in house from E. coli, C-terminal 6-His tagged), 20 μM NADH (Biochemika), 10 μM NAD+ (Biochemika), 50 μM Crotonoyl-CoA (Biochemika) and compound at defined concentration. Fluorescence intensity of NADH (lex=360 nm, lem=520 nm) is measured immediately after Crotonoyl-CoA addition, and 2 hours later by a Fluostar Optima (BMG). Enzyme activity is proportional to the signal decrease from which inhibition percentages are derived. For IC50 determinations, the inhibitor is tested at 6 to 10 different concentrations, and the related inhibitions are fitted to a classical langmuir equilibrium model using XLFIT (IDBS).
In Vitro Inhibition of Recombinant E. coli FabI Enzyme by Selected Compounds of Formula (I).

[6] = CIP76, broth microdilution, 37° C., 20 h
[7] = NEM14157, broth microdilution, 37° C., 20 h
[8] = recombinant E. coli FabI 40 nM, 60 min pre-incubation, NADH fluorescence, read-out: IC50

T1 sequence (P0AEK4 whole entry): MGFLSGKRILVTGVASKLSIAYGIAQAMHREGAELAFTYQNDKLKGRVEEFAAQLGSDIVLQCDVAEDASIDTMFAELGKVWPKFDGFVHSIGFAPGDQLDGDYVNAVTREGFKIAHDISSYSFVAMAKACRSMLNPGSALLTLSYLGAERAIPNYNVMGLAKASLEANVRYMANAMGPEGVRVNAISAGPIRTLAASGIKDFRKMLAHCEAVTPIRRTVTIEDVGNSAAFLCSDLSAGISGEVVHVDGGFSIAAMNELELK

Structure (SMILES): CCc1ccc(Oc2ccc(OCCCN3C(=O)c4ccccc4C3=O)cc2F)c(O)c1 [Example 38, 2-{3-[4-(4-Ethyl-2-hydroxy-phenoxy)-3-fluoro-phenoxy]-propyl}-isoindole-1,3-dione]
- MIC [1, 6]: 4 µg/mL (≈ 9.19 µM)
- MIC ([2]; broth microdilution, 37° C.): 0.25 µg/mL (≈ 0.574 µM)
- MIC [3, 6]: 0.062 µg/mL (≈ 0.142 µM)
- MIC [4, 7]: 1 µg/mL (≈ 2.3 µM)

Structure (SMILES): CCc1ccc(Oc2ccc(C(C)=O)cc2F)c(OC(=O)CN)c1 [Example 85, acetate hydrochloride]
- IC50 [5, 8]: 0.11 µM
- MIC ([1]; CIP76, 20 h): 1 µg/mL
- MIC ([3]; CIP76, 20 h): 0.062 µg/mL

Structure (SMILES): CCc1ccc(Oc2ccc(NCCCCO)cc2F)c(O)c1 [Example 37, 5-ethyl-2-{2-fluoro-4-[(4-hydroxybutyl)amino]phenoxy}phenol]
- IC50 [5]: 0.41 µM
- MIC [1, 6]: 4 µg/mL (≈ 12.5 µM)
- MIC ([2]; broth microdilution, 37° C.): 0.25 µg/mL (≈ 0.783 µM)
- MIC [3, 6]: 0.062 µg/mL (≈ 0.194 µM)
- MIC [4, 7]: 0.25 µg/mL (≈ 0.783 µM)

Structure (SMILES): CCc1ccc(Oc2ccc(NCCCNS(C)(=O)=O)cc2F)c(O)c1 [Example 79, N-methanesulfonyl-N-1-[4-(4-ethyl-2-hydroxyphenoxy)-3-fluorophenyl]propan-1,3-diamine]
- MIC [1, 6]: 16 µg/mL (≈ 41.8 µM)
- MIC ([2]; broth microdilution, 37° C.): 0.25 µg/mL (≈ 0.654 µM)
- MIC [3, 6]: 0.25 µg/mL (≈ 0.654 µM)
- MIC [4, 7]: 0.25 µg/mL (≈ 0.654 µM)

Structure (SMILES): CCc1ccc(Oc2ccc(S(C)(=O)=O)cc2)c(O)c1 [Example 47, 5-ethyl-2-[4-(methylsulfonyl)phenoxy]phenol]
- MIC [1, 6]: 16 µg/mL (≈ 54.7 µM)
- MIC [3, 6]: 0.25 µg/mL (≈ 0.855 µM)

Structure (SMILES): CCCc1ccc(Oc2nc(Cl)ccc2N)c(O)c1 [Example 1, 2-[(3-amino-6-chloropyridin-2-yl)oxy]-5-propylphenol]
- MIC [1, 6]: 16 µg/mL (≈ 57.4 µM)
- MIC ([2]; broth microdilution, 37° C.): 1 µg/mL (≈ 3.59 µM)
- MIC [3, 6]: 1 µg/mL (≈ 3.59 µM)
- MIC [4, 7]: 0.25 µg/mL (≈ 0.897 µM)

Structure (SMILES): Oc1cc(Cn2cncn2)ccc1Oc1cccc(F)n1 [Example 32, 2-[(6-fluoropyridin-2-yl)oxy]-5-(1H-1,2,4-triazol-1-ylmethyl)phenol]
- MIC [1, 6]: 16 µg/mL (≈ 55.9 µM)
- MIC [3, 6]: 4 µg/mL (≈ 14 µM)

Structure (SMILES): CCc1cc(O)c(Oc2ccc(N)cc2)cc1F [Example 62, 2-(4-aminophenoxy)-5-ethyl-4-fluorophenol]
- MIC [1, 6]: 4 µg/mL (≈ 16.2 µM)
- MIC [3, 6]: 0.25 µg/mL (≈ 1.01 µM)

Structure (SMILES): CCCc1ccc(Oc2cccnc2N)c(O)c1 [Example 55, 2-(2-Aminopyridin-3-yloxy)-5-propylphenol]
- IC50 [5]: 0.092 µM
- MIC [1, 6]: 1 µg/mL (≈ 4.09 µM)
- MIC [3, 6]: 0.25 µg/mL (≈ 1.02 µM)

Structure (SMILES): CCc1ccc(Oc2cc(F)ccc2N)c(O)c1 [Example 50, 2-(2-amino-5-fluorophenoxy)-5-ethylphenol]
- IC50 [5, 8]: 0.3 µM

Structure (SMILES): CCc1ccc(Oc2ccc(S(N)(=O)=O)cc2F)c(O)c1 [Example 65, 4-(4-ethyl-2-hydroxyphenoxy)-3-fluorobenzene sulfonamide]
- MIC [1, 6]: 1 µg/mL (≈ 3.21 µM)
- MIC [3, 6]: 0.25 µg/mL (≈ 0.803 µM)

Structure (SMILES): Oc1cc(Cl)ccc1Oc1ccc(Cl)cc1Cl [Triclosan, 5-chloro-2-(2,4-dichloro-phenoxy)-phenol, reference compound]
- MIC ([1]; CIP76, 20 h): 0.25 µg/mL (≈ 0.863 µM)
- MIC ([3]; CIP76, 20 h): 0.125 µg/mL (≈ 0.432 µM)

Structure (SMILES): CCc1ccc(Oc2ccc(NCc3cccnc3)cc2F)c(O)c1 [Example 66, 5-ethyl-2-{2-fluoro-4-[(pyridin-3-ylmethyl)amino]phenoxy}phenol]
- MIC [1, 6]: 16 µg/mL (≈ 47.3 µM)
- MIC [3, 6]: 0.25 µg/mL (≈ 0.739 µM)

Structure (SMILES): CCCc1ccc(Oc2cc(F)cc(F)n2)c(O)c1 [Example 25A, 2-[(4,6-difluoropyridin-2-yl)oxy]-5-propylphenol]
- MIC [1, 6]: 16 µg/mL (≈ 60.3 µM)
- MIC [3, 6]: 0.25 µg/mL (≈ 0.942 µM)

Structure (SMILES): CCc1ccc(Oc2ccc(S(=O)(=O)NCCO)cc2F)c(O)c1 [Example 67, 4-(4-ethyl-2-hydroxyphenoxy)-3-fluoro-N-(2-hydroxyethyl)benzenesulfonamide]
- MIC [1, 6]: 16 µg/mL (≈ 45 µM)
- MIC [3, 6]: 0.25 µg/mL (≈ 0.703 µM)

Structure (SMILES): CCCc1ccc(Oc2cccc(Cl)n2)c(O)c1 [Example 6, 2-[(6-chloropyridin-2-yl)oxy]-5-propylphenol]
- MIC [1, 6]: 16 µg/mL (≈ 60.7 µM)
- MIC ([2]; broth microdilution, 37° C.): 1 µg/mL (≈ 3.79 µM)
- MIC [3, 6]: 1 µg/mL (≈ 3.79 µM)
- MIC [4, 7]: 1 µg/mL (≈ 3.79 µM)

Structure (SMILES): CCc1ccc(Oc2ccc(C(=O)CCCO)cc2)c(O)c1 [Example 86, 1-[4-(4-ethyl-2-hydroxyphenoxy)phenyl]-4-hydroxy butan-1-one]
- MIC [1, 6]: 4 µg/mL (≈ 13.3 µM)
- MIC ([2]; broth microdilution, 37° C.): 0.062 µg/mL (≈ 0.206 µM)
- MIC [3, 6]: 0.062 µg/mL (≈ 0.206 µM)
- MIC [4, 7]: 0.062 µg/mL (≈ 0.206 µM)

Structure (SMILES): CCc1ccc(Oc2ccc(S(=O)(=O)NCCNC(C)=O)cc2F)c(O)c1 [Example 70, N-{2-[4-(4-Ethyl-2-hydroxy-phenoxy)-3-fluoro-benzenesulfonylamino]-ethyl}-acetamide]
- MIC [1, 6]: 16 µg/mL (≈ 40.4 µM)
- MIC [3, 6]: 0.25 µg/mL (≈ 0.631 µM)

Structure (SMILES): CCc1ccc(Oc2ccc(OCCCN)cc2F)c(O)c1 [Example 39, 2-[4-(3-aminopropoxy)-2-fluorophenoxy]-5-ethyl phenol]
- MIC ([1]; CIP76, 20 h): 16 µg/mL (≈ 52.4 µM)
- MIC [2]: 1 µg/mL (≈ 3.27 µM)
- MIC ([3]; CIP76, 20 h): 1 µg/mL (≈ 3.27 µM)
- MIC ([4]; NEM14157, 20 h): 1 µg/mL (≈ 3.27 µM)

Structure (SMILES): CCc1ccc(Oc2ccc(NS(=O)(=O)C3CC3)cc2F)c(O)c1 [Example 52, N-[4-(4-ethyl-2-hydroxyphenoxy)-3-fluorophenyl]cyclopropane sulfonamide]
- MIC [1, 6]: 16 µg/mL (≈ 45.5 µM)
- MIC [3, 6]: 1 µg/mL (≈ 2.85 µM)

Structure (SMILES): CCc1ccc(Oc2ccccc2N)c(O)c1 [Example 34, 2-(2-aminophenoxy)-5-ethylphenol]
- MIC [1, 6]: 1 µg/mL (≈ 4.36 µM)
- MIC ([2]; broth microdilution, 37° C.): 0.25 µg/mL (≈ 1.09 µM)
- MIC [3, 6]: 0.25 µg/mL (≈ 1.09 µM)
- MIC [4, 7]: 0.25 µg/mL (≈ 1.09 µM)

Structure (SMILES): CCc1ccc(Oc2ccc(NCCO)cc2F)c(O)c1 [Example 81, 5-Ethyl-2-[2-fluoro-4-(2-hydroxyethylamino)-phenoxy]phenol]
- MIC [1, 6]: 4 µg/mL (≈ 13.7 µM)
- MIC [3, 6]: 0.25 µg/mL (≈ 0.858 µM)

Structure (SMILES): CCCNc1ccc(Oc2ccc(CC)cc2O)c(F)c1 [Example 82, 5-ethyl-2-[2-fluoro-4-(propylamino)phenoxy]phenol]
- MIC [1, 6]: 16 µg/mL (≈ 55.3 µM)
- MIC [3, 6]: 0.25 µg/mL (≈ 0.864 µM)

Structure (SMILES): CCc1ccc(Oc2cccc(F)n2)c(O)c1 [Example 3, 5-ethyl-2-[(6-fluoropyridin-2-yl)oxy]phenol]
- MIC [1, 6]: 4 µg/mL (≈ 17.1 µM)
- MIC ([2]; broth microdilution, 37° C.): 0.25 µg/mL (≈ 1.07 µM)
- MIC [3, 6]: 0.25 µg/mL (≈ 1.07 µM)
- MIC [4, 7]: 0.25 µg/mL (≈ 1.07 µM)

Structure (SMILES): Oc1cc(C(F)=C(F)F)ccc1Oc1cccc(F)n1 [Example 28, 2-[(6-fluoropyridin-2-yl)oxy]-5-(trifluorovinyl) phenol]
- IC50 [5, 8]: 0.85 µM

Structure (SMILES): CCCc1ccc(Oc2cccc(N)n2)c(O)c1 [Example 7, 2-[(6-aminopyridin-2-yl)oxy]-5-propylphenol]
- MIC [1, 6]: > 16 µg/mL
- MIC [3, 6]: 2 µg/mL (≈ 8.19 µM)

Structure (SMILES): CCc1cc(O)c(Oc2cccc(F)n2)cc1F [Example 57]
- IC50 [5]: 1.1 µM
- MIC [1, 6]: 4 µg/mL (≈ 15.9 µM)
- MIC [3, 6]: 0.25 µg/mL (≈ 0.995 µM)

Structure (SMILES): CCc1ccc(Oc2ccc(OCCCC(=O)O)cc2F)c(O)c1 [Example 74, 4-[4-(4-Ethyl-2-hydroxy-phenoxy)-3-fluoro-phenoxy]-butyric acid]
- MIC [1, 6]: 4 µg/mL (≈ 12 µM)
- MIC ([2]; broth microdilution, 37° C.): 0.062 µg/mL (≈ 0.185 µM)
- MIC [3, 6]: 0.062 µg/mL (≈ 0.185 µM)
- MIC [4, 7]: 0.062 µg/mL (≈ 0.185 µM)
